Legend:
[1] = tested on: DAOY:NICD2; assay: Flow cytometric analysis of CD133-positive fraction; format: cell-based; settings: DAOY:NICD2 expressing truncated Notch2; 2 μM
Procedure: Consistent with the hypothesis that Notch is important in CSC, gain or loss of pathway activity modulated the size of the CD133-expressing stem-like subpopulation (FIG. 4B). This fraction was elevated to 17.2% in DAOY cells stably transfected with a plasmid encoding the constitutively active Notch2 intracellular domain (DAOY:NICD2). In contrast, Notch pathway inhibition using GSI-18, a potent sulfonamide GSI (21), reduced the CD133-positive stem-like fraction […] to 3.3% (p<0.01). […] 2 μM GSI-18 was used in these experiments, as both mRNA and protein levels of the Notch pathway target Hes1 are reduced over 70% after 48 hours by this concentration of the drug (FIG. 4E).
The DAOY, PFSK, D283 and D425 Med cell lines were obtained from the American Type Culture Collection. The low-passage MB line MB2 was derived from a tumor resected at Johns Hopkins Hospital. […] Cell mass was measured using CellTITER assays according to the manufacturer's instructions (Promega, Madison, Wis.). Cell number and viability were assessed using the Guava PCA and Viacount reagent according to instructions (Guava Technologies, Heyward, Calif.). Soft agar assays were performed as previously described (15) and scored either manually after 4 weeks or using as automated reader after 6 weeks. […] Soft agar assays were performed as previously described, with colonies counted using an automated reader (15). […]

[2] = tested on: E3LZ10.7; assay: Colony formation in soft agar after pre-treatment; format: cell-based, human
Procedure: (Top) Experimental scheme illustrating pre-treatment of pancreatic cancer cell lines with GSI-18, prior to plating for soft agar assays and subcutaneous injection in athymic mice. Treatment for 24 hours with GSI-18 or vehicle is followed by recovery in full serum for a further 24 hours minus the drug. Equal numbers of viable cells from the control and treated groups are then plated for colony assays in soft agar, or injected in nude mice. Of note, during the in vitro or in vivo assays, no further drug is administered. […] The dosage required for significant inhibition of clonogenicity varies between 2 μM (Capan-1) to 5 μM (E3LZ10.7). Bar graphs represent colony counts at two weeks, with mean and standard deviations calculated from triplicate experiments. (Left) Pre-treatment with GSI-18 inhibits tumorigenicity of Panc-1 pancreatic cancer cell line in athymic mice. […] Error bars represent standard deviation of five mice per arm.

[3] = tested on: DAOY; assay: Clonogenic assay in soft agar; format: cell-based; settings: equal number of viable cells seeded after 48 hours of treatment; 2 μM; vehicle 2.9%
Procedure: A clonogenic assay was used to determine whether cells capable of initiating anchorage-independent colonies were depleted by GSI-18. In vehicle-treated DAOY cultures, 2.9% of cells formed large colonies when seeded in soft agar (FIG. 7H). This number dropped to 0.26% when an equal number of viable cells were counted and seeded after 48 hours of treatment with GSI-18, and increased to 7.2% in the presence of constitutive Notch2 activation. Initiation of tumor xenografts was assayed next, a strategy used in several previous studies to examine the presence or absence of cancer stem cells (6-8). DAOY and DAOY:NICD2 cultures were treated with either 2 μM GSI-18 or vehicle alone, and the viable cells remaining after 48 hours counted using Trypan blue. […] To rule out the possibility that cells were alive but moribund following gamma-secretase inhibition, the experiment was repeated with cells counted after a recovery period.
The DAOY, PFSK, D283 and D425 Med cell lines were obtained from the American Type Culture Collection. […] Cell mass was measured using CellTITER assays according to the manufacturer's instructions (Promega, Madison, Wis.). Cell number and viability were assessed using the Guava PCA and Viacount reagent according to instructions (Guava Technologies, Heyward, Calif.). […] Soft agar assays were performed as previously described, with colonies counted using an automated reader (15).

[4] = tested on: D425Med; assay: Xenograft initiation by pretreated cells in athymic (nude) mice; format: in vivo; settings: treated 48 hours, n=2
[5] = tested on: Panc-1; assay: Colony formation in soft agar (clonogenicity); format: cell-based, human; settings: colony counts at two weeks
Text: Specificity of the RNA interference is confirmed by downregulation of Notch1 transcript levels with the specific siRA, but not with the scrambled controls. […] Bar graphs represent colony counts at two weeks, with mean and standard deviations calculated from triplicate experiments.
Bar graphs represent colony counts at two weeks, with mean and standard deviations calculated from triplicate experiments.

[6] = Behavioral or physical changes in treated animals; format: in vivo, mice; settings: 0.5 mg i.p. for five consecutive days
Procedure: As a test of the requirement for ongoing Notch activity during tumor engraftment, animals were treated with GSI-18 after subcutaneously injecting DAOY and DAOY:NICD2 cells into their left and right flanks. A treatment group of four mice received intraperitoneal injections containing 0.5 mg GSI-18 in DMSO for five consecutive days, beginning on the day of xenograft initiation, while the control group was treated with vehicle alone.

[7] = tested on: D425Med; assay: Number of live cells (Guava Viacount); format: cell-based; settings: 2 μM
Procedure: (§1) The fact that cultures grew 2-fold or more during the same time period that side population was essentially ablated by Notch pathway blockade provides additional support for the notion that medulloblatoma CSC are especially vulnerable to Notch signaling inhibition.
(§2) The DAOY, PFSK, D283 and D425 Med cell lines were obtained from the American Type Culture Collection. The low-passage MB line MB2 was derived from a tumor resected at Johns Hopkins Hospital. For treatment studies, cell were plated and allowed to grow overnight in MEM (Invitrogen, Carlsbad, Calif.) containing 10% FBS, then media was replaced the next morning with low serum (0.5% FBS) MEM containing GSI dissolved in DMSO. RNA and protein extractions, and all cell-based assays, were performed 48 hours after drug application unless otherwise noted. All experiments with error bars were performed in triplicate and shown as mean values with standard error unless otherwise noted. Cell mass was measured using CellTITER assays according to the manufacturer's instructions (Promega, Madison, Wis.). Cell number and viability were assessed using the Guava PCA and Viacount reagent according to instructions (Guava Technologies, Heyward, Calif.). Soft agar assays were performed as previously described (15) and scored either manually after 4 weeks or using as automated reader after 6 weeks. The constitutively active Akt stable cell line was made by transfecting DAOY cells with myristolated Akt (pCB6-IMy-Akt-HA) or control (pCB6+) plasmids (kind gifts from Susan J. Baker) and selecting and maintaining clones in 0.8 mg/ml G418. Soft agar assays were performed as previously described, with colonies counted using an automated reader (15).

[8] = tested on: PFSK; assay: Number of live cells (Guava Viacount); format: cell-based; settings: 2 μM
Procedure: as §1, §2

[9] = tested on: D283Med; assay: Number of live cells (Guava Viacount); format: cell-based; settings: 2 μM
Procedure: as §1, §2

[10] = tested on: DAOY; assay: Number of live cells (Guava Viacount); format: cell-based; settings: 2 μM
Procedure: as §1, §2

O=S(=O)(NC1C2CCC1Cc1ccccc1C2)c1cccs1 (stereo not drawn) [GSI-18, [11-endo]-N-(5,6,7,8,9,10-hexahydro-6,9-methanobenzo[α][8]annulen-11-yl)-thiophene-2-sulfonamide]
sensitivity of CD133-positive fraction to the inhibitor [1]: insensitive to GSI-18 | colony formation following pre-treatment ([2]; 24 hours pre-treatment, 24 hours recovery minus drug, colony counts at two weeks): Significant inhibition of colony formation | dosage required for significant inhibition of clonogenicity ([2]; pre-treatment): 5 µM | cells forming large colonies in soft agar [3]: 0.26% | engraftment of pretreated cells [4]: failed to engraft | clonogenicity, colony formation in soft agar [5]: significant inhibition of clonogencity | behavioral or physical changes [6]: No behavioral or physical changes were noted | growth in the number of live cells [7]: reduced as compared to vehicle treated controls | growth in the number of live cells [8]: reduced as compared to vehicle treated controls | growth in the number of live cells [9]: reduced as compared to vehicle treated controls | growth in the number of live cells [10]: reduced as compared to vehicle treated controls

Source: patent US20140227173A1, “CANCER TREATMENT WITH GAMMA-SECRETASE INHIBITORS” (The Johns Hopkins University, priority 2006, published 2014)
